Counter-ions that a name gives are not always drawn.
Compared with `COC(=O)c1ccc(Oc2ccc3c(c2)CCN(C2CCN(C4CCC4)CC2)C3=O)cc1` (as salt: hydrochloride) [Example 1, methyl 4-{[2-(1-Cyclobutylpiperidin-4-yl)-1-oxo-1,2,3,4-tetrahydroisoquinolin-6-yl]oxy}benzoate], `NC(=O)c1ccc(Oc2ccc3c(c2)CCN(C2CCN(C4CCC4)CC2)C3=O)cc1` (as salt: hydrochloride) [Example 3, 4-{[2-(1-cyclobutylpiperidin-4-yl)-1-oxo-1,2,3,4-tetrahydroiso-quinolin-6-yl]oxy}benzamide Hydrochloride] is higher in melting point: 269 to 270 °C for the first, 309 to 310 °C for the second.

Compared with `CCNC(=O)c1ccc(Oc2ccc3c(c2)CCN(C2CCN(C4CCC4)CC2)C3=O)cc1` (as salt: hydrochloride) [Example 5, 4-{[2-(1-Cyclobutylpiperidin-4-yl)-1-oxo-1,2,3,4-tetrahydroisoquinolin-6-yl]oxy}-N-ethylbenzamide], `CCNC(=O)c1ccc(Oc2ccc3c(c2)CCN([C@@H]2CCN(C4CCC4)C2)C3=O)cc1` (as salt: hydrochloride) [Example 34, 4-({2-[(3R)-1-cyclobutylpyrrolidin-3-yl]-1-oxo-1,2,3,4-tetrahydroisoquinolin-6-yl}oxy)-N-ethylbenzamide] is lower in melting point: 317 to 318 °C for the first, 153 to 154 °C for the second.

First: CC(C)NC(=O)c1ccc(Oc2ccc3c(c2)CCN(C2CCN(C4CCC4)CC2)C3=O)cc1 (as salt: hydrochloride) [Example 6, 4-{[2-(1-Cyclobutylpiperidin-4-yl)-1-oxo-1,2,3,4-tetrahydroisoquinolin-6-yl]oxy}-N-isopropylbenzamide]
Second: CN(C)C(=O)c1ccc(Oc2ccc3c(c2)CCN(C2CCN(C4CCC4)CC2)C3=O)cc1 (as salt: hydrochloride) [Example 10, 4-{[2-(1-Cyclobutylpiperidin-4-yl)-1-oxo-1,2,3,4-tetrahydroisoquinolin-6-yl]oxy}-N,N-dimethylbenzamide]
The melting point of the first is higher: 309 to 311 °C for the first, 262 to 264 °C for the second.

First: O=C(NC1CC1)c1ccc(Oc2ccc3c(c2)CCN(C2CCN(C4CCC4)CC2)C3=O)cc1 (as salt: hydrochloride) [Example 7, 4-{[2-(1-Cyclobutylpiperidin-4-yl)-1-oxo-1,2,3,4-tetrahydroisoquinolin-6-yl]oxy}-N-cyclopropylbenzamide]
Second: O=C(NC1CCC1)c1ccc(COc2ccc3c(c2)CCN(C2CCN(C4CCC4)CC2)C3=O)cc1 (as salt: hydrochloride) [Example 19, N-Cyclobutyl-4-({[2-(1-cyclobutylpiperidin-4-yl)-1-oxo-1,2,3,4-tetrahydroisoquinolin-6-yl]oxy}methyl)benzamide]
The melting point of the first is higher: 307 to 309 °C for the first, 286 to 288 °C for the second.

First: CCN(CC)C(=O)c1ccc(Oc2ccc3c(c2)CCN(C2CCN(C4CCC4)CC2)C3=O)cc1 (as salt: hydrochloride) [Example 11, 4-{[2-(1-Cyclobutylpiperidin-4-yl)-1-oxo-1,2,3,4-tetrahydroisoquinolin-6-yl]oxy}-N,N-diethylbenzamide]
Second: CN(C)C(=O)c1ccc(COc2ccc3c(c2)CCN(C2CCN(C4CCC4)CC2)C3=O)cc1 (as salt: hydrochloride) [Example 18, 4-({[2-(1-Cyclobutylpiperidin-4-yl)-1-oxo-1,2,3,4-tetrahydroisoquinolin-6-yl]oxy}methyl)-N,N-dimethylbenzamide]
The melting point of the first is lower: 249 to 251 °C for the first, 292 to 294 °C for the second.

First: O=C(c1ccc(Oc2ccc3c(c2)CCN(C2CCN(C4CCC4)CC2)C3=O)cc1)N1CCCC1 (as salt: hydrochloride) [Example 12, 2-(1-Cyclobutylpiperidin-4-yl)-6-[4-(pyrrolidin-1-ylcarbonyl)phenoxy]-3,4-dihydroisoquinolin-1(2H)-one]
Second: O=C(c1ccc(COc2ccc3c(c2)CCN(C2CCN(C4CCC4)CC2)C3=O)cc1)N1CCCC1 (as salt: hydrochloride) [Example 20, 2-(1-Cyclobutylpiperidin-4-yl)-6-{[4-(pyrrolidin-1-ylcarbonyl)benzyl]oxy}-3,4-dihydroisoquinolin-1(2H)-one]
The melting point of the first is lower: 253 to 255 °C for the first, 284 to 286 °C for the second.

Compared with `NC(=O)c1ccc(COc2ccc3c(c2)CCN(C2CCN(C4CCC4)CC2)C3=O)cc1` (as salt: hydrochloride) [Example 15, 4-({[2-(1-cyclobutylpiperidin-4-yl)-1-oxo-1,2,3,4-tetrahydroiso-quinolin-6-yl]oxy}methyl)benzamide acid hydrochloride], `CNC(=O)c1ccc(COc2ccc3c(c2)CCN(C2CCN(C4CCC4)CC2)C3=O)cc1` (as salt: hydrochloride) [Example 16, 4-({[2-(1-Cyclobutylpiperidin-4-yl)-1-oxo-1,2,3,4-tetrahydroisoquinolin-6-yl]oxy}methyl)-N-methylbenzamide] is higher in melting point: 292 to 293 °C for the first, 302 to 303 °C for the second.

Compared with `CCNC(=O)c1ccc(COc2ccc3c(c2)CCN(C2CCN(C4CCC4)CC2)C3=O)cc1` (as salt: hydrochloride) [Example 17, 4-({[2-(1-Cyclobutylpiperidin-4-yl)-1-oxo-1,2,3,4-tetrahydroisoquinolin-6-yl]oxy}methyl)-N-ethylbenzamide], `O=C(NC1CCCC1)c1ccc(COc2ccc3c(c2)CCN(C2CCN(C4CCC4)CC2)C3=O)cc1` (as salt: hydrochloride) [Example 21, 4-({[2-(1-Cyclobutylpiperidin-4-yl)-1-oxo-1,2,3,4-tetrahydroisoquinolin-6-yl]oxy}methyl)-N-cyclopentylbenzamide] is lower in melting point: 307 to 309 °C for the first, 289 to 291 °C for the second.

Compared with `N#Cc1ccc(-c2ccc3c(c2)CN(C2CCNCC2)C3=O)cc1` (as salt: hydrochloride) [Example 22, 4-(1-oxo-2-piperidin-4-yl-2,3-dihydro-1H-isoindol-5-yl)benzonitrile hydrochloride], `CN1CCC(N2Cc3cc(-c4ccc(C#N)cc4)ccc3C2=O)CC1` (as salt: hydrochloride) [Example 23] is higher in melting point: 105 to 106 °C for the first, 322 to 323 °C for the second.

Compared with `CCCN1CCC(N2Cc3cc(-c4ccc(C#N)cc4)ccc3C2=O)CC1` (as salt: hydrochloride) [Example 25, 4-[1-Oxo-2-(1-propylpiperidin-4-yl)-2,3-dihydro-1H-isoindol-5-yl]benzonitrile], `N#Cc1ccc(-c2ccc3c(c2)CN(C2CCN(CC4CC4)CC2)C3=O)cc1` (as salt: hydrochloride) [Example 26, 4-{2-[1-(Cyclopropylmethyl)piperidin-4-yl]-1-oxo-2,3-dihydro-1H-isoindol-5-yl}benzonitrile] is higher in melting point: 300 to 302 °C for the first, 309 to 310 °C for the second.

First: CNC(=O)c1ccc(Oc2ccc3c(c2)CCN([C@@H]2CCN(C4CCC4)C2)C3=O)cc1 (as salt: hydrochloride) [Example 33, 4-({2-[(3R)-1-cyclobutylpyrrolidin-3-yl]-1-oxo-1,2,3,4-tetrahydroisoquinolin-6-yl}oxy)-N-methylbenzamide]
Second: CNC(=O)c1ccc(Oc2ccc3c(c2)CCN([C@@H]2CCN(C4CCCC4)C2)C3=O)cc1 (as salt: hydrochloride) [Example 37, 4-({2-[(3R)-1-cyclopentylpyrrolidin-3-yl]-1-oxo-1,2,3,4-tetrahydroisoquinolin-6-yl}oxy)-N-methylbenzamide]
The melting point of the first is lower: 206 to 208 °C for the first, 223 to 224 °C for the second.

`CCNC(=O)c1ccc(Oc2ccc3c(c2)CCN([C@@H]2CCN(C4CCCC4)C2)C3=O)cc1` (as salt: hydrochloride) [Example 38, 4-({2-[(3R)-1-cyclopentylpyrrolidin-3-yl]-1-oxo-1,2,3,4-tetrahydroisoquinolin-6-yl}oxy)-N-ethylbenzamide] showed a melting point of 178 to 180 °C.

In the case of `CNC(=O)c1ccc(Oc2ccc3c(c2)CCN(C2CCN(C4CCC4)CC2)C3=O)cc1` (as salt: hydrochloride) [Example 4, 4-{[2-(1-Cyclobutylpiperidin-4-yl)-1-oxo-1,2,3,4-tetrahydroisoquinolin-6-yl]oxy}-N-methylbenzamide], the melting point is reported as over 310 °C.
Work on `O=C(NC1CCC1)c1ccc(Oc2ccc3c(c2)CCN(C2CCN(C4CCC4)CC2)C3=O)cc1` (as salt: hydrochloride) [Example 8, N-Cyclobutyl-4-{[2-(1-cyclobutylpiperidin-4-yl)-1-oxo-1,2,3,4-tetrahydroisoquinolin-6-yl]oxy}benzamide] yielded a melting point of over 300 °C.
For `O=C(NC1CCCC1)c1ccc(Oc2ccc3c(c2)CCN(C2CCN(C4CCC4)CC2)C3=O)cc1` (as salt: hydrochloride) [Example 9, 4-{[2-(1-Cyclobutylpiperidin-4-yl)-1-oxo-1,2,3,4-tetrahydroisoquinolin-6-yl]oxy}-N-cyclopentylbenzamide], the melting point was over 300 °C.
With `CCN1CCC(N2Cc3cc(-c4ccc(C#N)cc4)ccc3C2=O)CC1` (as salt: hydrochloride) [Example 24, 4-[2-(1-Ethylpiperidin-4-yl)-1-oxo-2,3-dihydro-1H-isoindol-5-yl]benzonitrile] the melting point was over 300 °C.
`N#Cc1ccc(-c2ccc3c(c2)CN(C2CCN(CC4CCCC4)CC2)C3=O)cc1` (as salt: hydrochloride) [Example 27, 4-{2-[1-(Cyclopentylmethyl)piperidin-4-yl]-1-oxo-2,3-dihydro-1H-isoindol-5-yl}benzonitrile] showed a melting point of over 300 °C.
For `N#Cc1ccc(-c2ccc3c(c2)CN(C2CCN(C4CCC4)CC2)C3=O)cc1` (as salt: hydrochloride) [Example 28, 4-[2-(1-Cyclobutylpiperidin-4-yl)-1-oxo-2,3-dihydro-1H-isoindol-5-yl]benzonitrile], the melting point was 320 °C (dec.).
In the case of `N#Cc1ccc(-c2ccc3c(c2)CN(C2CCN(C4CCCC4)CC2)C3=O)cc1` (as salt: hydrochloride) [Example 29, 4-[2-(1-Cyclopentylpiperidin-4-yl)-1-oxo-2,3-dihydro-1H-isoindol-5-yl]benzonitrile], the melting point is reported as 270 °C (dec.).
In the case of `N#Cc1ccc(-c2ccc3c(c2)CN(C2CCN(C4CCCCC4)CC2)C3=O)cc1` (as salt: hydrochloride) [Example 30, 4-[2-(1-Cyclohexylpiperidin-4-yl)-1-oxo-2,3-dihydro-1H-isoindol-5-yl]benzonitrile], the melting point is reported as over 300 °C.
With `CNC(=O)c1ccc(-c2ccc3c(c2)CCN([C@@H]2CCN(C4CCCC4)C2)C3=O)cc1` (as salt: hydrochloride) [Example 41, 4-{2-[(3R)-1-cyclopentylpyrrolidin-3-yl]-1-oxo-1,2,3,4-tetrahydroisoquinolin-6-yl}-N-methylbenzamide] the melting point was over 240 °C.
